Assay results from US20050215614A1, “Substituted indoles and their use as hcv inhibitors” (Rigel Pharmaceuticals, Inc., priority 2003, published 2005).

system: HCV replicon; experiment: HCV Replicon Assay (luciferase, 5-2 Luc replicon cells); assay type: cell-based; details: 5-2 Luc replicon cells (Huh7), 24-48 hours with compound, luciferase counts
Protocol: Actively dividing 5-2 Luc replicon cells were seeded at the density of 5000-7500 cells/well in the volume of 90 μl/well into 96 well plate(s). The cells were then incubated at 37° C. and 5% CO2 for 24 hours. The 5-2 cells are replicon cells licensed from Ralf Bartenschlager (Germany) and have a self-replicating RNA molecule in the Huh7 cell; the RNA contains HCV non-structural proteins that make the self-replication possible.
Various concentrations of compounds (in the volume of 10 μl) were added into each well 24 hours after seeding the cells. The cells were incubated for another 24-48 hours before luciferase assay.
After incubating the 5-2 Luc replicon cells with the compounds for 24-48 hours, media were aspirated from each well and Bright-Glo (Promega) luciferase assay reagents were added to each well according to the manufacturer′s manual. Briefly, the Bright-Glo reagent was diluted with equal volume of PBS and an aliquote (100 μl) was added to each well. After incubating the plate at room temperature for 5 minutes, luciferase counts were taken using a luminometer.

Compound | Activity (concentration of inhibitory activity)
Cc1cc2cc(NC(=O)C3CCC(=O)C3)ccc2n1C(=O)c1c(Cl)cccc1Cl (stereo not drawn) [Compound 16a-14] | a (“a” indicates inhibitory activity at a concentration of less than 10 micromolar)
COc1cccc(OC)c1C(=O)n1c(C)cc2cc(NC(=O)C3CC3)ccc21 [Compound 16b4, 5-Cyclopropanecarbonylamino-1-(2′,6′-dimethoxybenzoyl)-2-methylindole] | a (“a” indicates inhibitory activity at a concentration of less than 10 micromolar)
COc1cccc(OC)c1C(=O)n1c(C)cc2cc(NC(=O)C3CCCC3)ccc21 [Compound 16b-1, 5-Cyclopentanecarbonylamino-1-(2′,6′-dimethoxybenzoyl)-2-methylindole] | a (“a” indicates inhibitory activity at a concentration of less than 10 micromolar)
COc1cccc(OC)c1C(=O)n1c(C)cc2cc(NC(=O)C3CCCCC3)ccc21 [Compound 16b-2, 5-Cyclohexanecarbonylamino-1 (2′,6′-dimethoxybenzoyl)-2-methylindole] | a (“a” indicates inhibitory activity at a concentration of less than 10 micromolar)
COc1cccc(OC)c1C(=O)n1c(C)cc2cc(NC(=O)C3CCC3)ccc21 [Compound 16b-3, 5-Cyclobutanecarbonylamino-1-(2′,6′-dimethoxybenzoyl)-2-methylindole] | a (“a” indicates inhibitory activity at a concentration of less than 10 micromolar)
COc1cccc(OC)c1C(=O)n1c(C)cc2cc(NC(=O)c3cccnc3)ccc21 [Compound 16b-5, 1-(2′,6′-Dimethoxybenzoyl)-5-(3-pyridylcarbonyl)amino-2-methylindole] | a (“a” indicates inhibitory activity at a concentration of less than 10 micromolar)
COc1cccc(OC)c1C(=O)n1c(C)cc2cc(NC(=O)C3CCC(=O)C3)ccc21 (stereo not drawn) [Compound 16b-6, 1-(2′,6′-Dimethoxybenzoyl)-5-(3-oxo-1-cyclopentanecarbonyl)amino-2-methylindole] | a (“a” indicates inhibitory activity at a concentration of less than 10 micromolar)
Cc1cc2cc(NC(=O)C3CCCC3)ccc2n1C(=O)c1c(F)cccc1C(F)(F)F [Compound 16c-1, 5-Cyclopentanecarbonylamino-1-(2′-fluoro-6′-trifluoromethylbenzoyl)-2-methylindole] | a (“a” indicates inhibitory activity at a concentration of less than 10 micromolar)
Cc1cc2cc(NC(=O)C3CCCCC3)ccc2n1C(=O)c1c(F)cccc1C(F)(F)F [Compound 16c-2, 5-Cyclohexanecarbonylamino-1-(2′-fluoro-6′-trifluoromethylbenzoyl)-2-methylindole] | a (“a” indicates inhibitory activity at a concentration of less than 10 micromolar)
Cc1cc2cc(NC(=O)C3CCC3)ccc2n1C(=O)c1c(F)cccc1C(F)(F)F [Compound 16c-3, 5-Cyclobutanecarbonylamino-1-(2′-fluoro-6′-trifluoromethylbenzoyl)-2-methylindole] | a (“a” indicates inhibitory activity at a concentration of less than 10 micromolar)
Cc1cc2cc(NC(=O)C3CC3)ccc2n1C(=O)c1c(F)cccc1C(F)(F)F [Compound 16c-4, 5-Cyclopropanecarbonylamino-1-(2′fluoro-6′-trifluoromethylbenzoyl)-2-methylindole] | a (“a” indicates inhibitory activity at a concentration of less than 10 micromolar)
Cc1cc2cc(NC(=O)C3CCC(=O)C3)ccc2n1C(=O)c1c(F)cccc1C(F)(F)F (stereo not drawn) [Compound 16c-5, 1-(2′-Fluoro-6′-trifluoromethylbenzoyl)-5-(3-oxo-1-cyclopentanecarbonyl)amino-2-methylindole] | a (“a” indicates inhibitory activity at a concentration of less than 10 micromolar)
Cc1cc2cc(NC(=O)C3CCCC3)ccc2n1C(=O)c1c(F)cccc1F [Compound 16d-1, 5-Cyclopentanecarbonylamino-1-(2′,6′-difluorobenzoyl)-2-methylindole] | b (“b” indicates activity is at a concentration greater than 10 micromolar)
Cc1cc2cc(NC(=O)C3CCC3)ccc2n1C(=O)c1c(F)cccc1F [Compound 16d-2, 5-Cyclobutanecarbonylamino-1-(2′,6′-difluorobenzoyl)-2-methylindole] | b (“b” indicates activity is at a concentration greater than 10 micromolar)
Cc1cc2cc(NC(=O)C3CC3)ccc2n1C(=O)c1c(F)cccc1F [Compound 16d-3, 5-Cyclopropanecarbonylamino-1-(2′,6′-difluorobenzoyl)-2-methylindole] | b (“b” indicates activity is at a concentration greater than 10 micromolar)
Cc1cc2cc(NC(=O)C3CCCC3)ccc2n1C(=O)c1c(F)cccc1Cl [Compound 16e-1, 1-(2′-Chloro-6′-fluorobenzoyl)-5-cyclopentanecarbonylamino-2-methylindole] | a (“a” indicates inhibitory activity at a concentration of less than 10 micromolar)
Cc1cc2cc(NC(=O)C3CCCCC3)ccc2n1C(=O)c1c(F)cccc1Cl [Compound 16e-2, 1-(2′-Chloro-6′-fluorobenzoyl)-5-Cyclohexanecarbonylamino-2-methylindole] | a (“a” indicates inhibitory activity at a concentration of less than 10 micromolar)
Cc1cc2cc(NC(=O)C3CCC3)ccc2n1C(=O)c1c(F)cccc1Cl [Compound 16e-3, 1-(2′-Chloro-6′-fluorobenzoyl)-5-cyclobutanecarbonylamino-2-methylindole] | a (“a” indicates inhibitory activity at a concentration of less than 10 micromolar)
Cc1cc2cc(NC(=O)C3CC3)ccc2n1C(=O)c1c(F)cccc1Cl [Compound 16e-4, 1-(2′-Chloro-6′-fluorobenzoyl)-5-cyclopropanecarbonylamino-2-methylindole] | a (“a” indicates inhibitory activity at a concentration of less than 10 micromolar)
Cc1cc2cc(NC(=O)C3CCC(=O)C3)ccc2n1C(=O)c1c(F)cccc1Cl (stereo not drawn) [Compound 16e-5, 1-(2′-Chloro-6′-fluorobenzoyl)-5-(3-oxo-1-cyclopentanecarbonyl)amino-2-methylindole] | a (“a” indicates inhibitory activity at a concentration of less than 10 micromolar)
Cc1cccc(C)c1C(=O)n1c(C)cc2cc(NC(=O)C3CCCC3)ccc21 [Compound 16f-1, 5-Cyclopentanecarbonylamino-1-(2′,6′-dimethylbenzoyl)-2-methylindole] | a (“a” indicates inhibitory activity at a concentration of less than 10 micromolar)
Cc1cccc(C)c1C(=O)n1c(C)cc2cc(NC(=O)C3CCCCC3)ccc21 [Compound 16f-2, 5-Cyclohexanecarbonylamino-1-(2′,6′-dimethylbenzoyl)-2-methylindole] | a (“a” indicates inhibitory activity at a concentration of less than 10 micromolar)
Cc1cccc(C)c1C(=O)n1c(C)cc2cc(NC(=O)C3CCC3)ccc21 [Compound 16f-3, 5-Cyclobutanecarbonylamino-1-(2′,6′-dimethylbenzoyl)-2-methylindole] | a (“a” indicates inhibitory activity at a concentration of less than 10 micromolar)
Cc1cccc(C)c1C(=O)n1c(C)cc2cc(NC(=O)C3CC3)ccc21 [Compound 16f-4, 5-Cyclopropanecarbonylamino-1-(2′,6′-dimethylbenzoyl)-2-methylindole] | a (“a” indicates inhibitory activity at a concentration of less than 10 micromolar)
Cc1cccc(C)c1C(=O)n1c(C)cc2cc(NC(=O)C3CCC(=O)C3)ccc21 (stereo not drawn) [Compound 16f-5, 1-(2′,6′-Dimethylbenzoyl)-5-(3-oxo-1-cyclopentanecarbonyl)amino-2-methylindole] | a (“a” indicates inhibitory activity at a concentration of less than 10 micromolar)
Cc1cc2cc(NC(=O)C3CCCC3)ccc2n1C(=O)c1cc(Cl)nc(Cl)c1 [Compound 16g-1, 5-Cyclopentanecarbonylamino-l-(2′,6′-dichloro-4′-pyridylcarbonyl)-2-methylindole] | a (“a” indicates inhibitory activity at a concentration of less than 10 micromolar)
Cc1cc2cc(NC(=O)C3CC3)ccc2n1C(=O)c1cc(Cl)nc(Cl)c1 [Compound 16g-2, 5-Cyclopropanecarbonylamino-1-(2′,6′-dichloro-4′-pyridylcarbonyl)-2-methylindole] | a (“a” indicates inhibitory activity at a concentration of less than 10 micromolar)
Cc1cc2cc(NC(=O)C3CCC(=O)C3)ccc2n1C(=O)c1cc(Cl)nc(Cl)c1 (stereo not drawn) [Compound 16g-3, 1-(2′,6′-Dichloro-4-pyridylcarbonyl)-5-(3-oxo-1-cyclopentanecarbonyl)amino-2-methylindole] | a (“a” indicates inhibitory activity at a concentration of less than 10 micromolar)
Cc1cc2cc(NC(=O)C3CCCC3)ccc2n1C(=O)c1ccccc1Cl [Compound 18, 1-(2′-Chlorobenzoyl)-5-cyclopentanecarbonylamino-2-methylindole] | b (“b” indicates activity is at a concentration greater than 10 micromolar)
COc1ccccc1C(=O)n1c(C)cc2cc(NC(=O)C3CCCC3)ccc21 [Compound 19, 1-(o-Anisoyl)-5-cyclopentanecarbonylamino-2-methylindole] | a (“a” indicates inhibitory activity at a concentration of less than 10 micromolar)
